Reference: patent US9340532B2, “Methods and compositions for inhibiting CNKSR1” (PHUSIS THERAPEUTICS, INC., priority 2012, dated 2016)
Values joined by “and” are separate entries in the source; they are usually repeats but may differ in a detail not shown here. Equal values may be shown once. Read-outs that look alike come from different tables or passages of the source.

How the values were obtained:
PH-domain of PDPK1 = molecular target: T1, PH-domain of PDPK1 (Homo sapiens, UniProt O15530); assay: SPR binding to expressed PH-domain of PDPK1
T1 construct: made in house
T1 sequence (O15530 459-550 limits assumed): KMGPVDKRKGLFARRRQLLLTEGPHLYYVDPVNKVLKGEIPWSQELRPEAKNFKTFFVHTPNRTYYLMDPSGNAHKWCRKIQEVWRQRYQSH
Method: (§1) In embodiments, the binding of identified compounds to the crystal structures of other PH-domain signaling proteins, AKT, PDPK1, Btk, and Tiam1 can be predicted. In such embodiments, the Kds exceed about 100 μM. In other embodiments, SPR can measure the binding of identified compounds to the expressed PH-domains of AKT, PDPK1 and Tiam1. […] Thus, the identified compounds appear have, at least, about 50 to about 100 fold selectivity for CNKSR1 compared to the other PH-domains studied.
(§2) A commercially available docking package, GOLD (GOLD [3.2], CCDC: Cambridge, UK, 2007) was used to evaluate the docking of compounds 1-7 into the binding pocket, see e.g. Table 5. Other docking was performed using modeling algorithms with state-of-the-art commercial drug discovery software (Schrodinger suite). GLIDE was chosen as the docking algorithm used to select and optimize compounds, providing a GlideScore as a rough estimate of binding affinity that was used to rank and select the best compounds. Additionally, ligand-based approaches provided an alternative to structure based drug discovery. Ligand-based virtual screening methodologies can take into account shape and electrostatics (like ROCS) and the pharmacophoric features (acceptor, donor, hydrophobic, aromatic, etc.) of its functional groups. […]

PH-domain of Tiam1 = assay: SPR binding to expressed PH-domain of Tiam1
Method: as §1, §2

PH-domain of AKT = molecular target: T2, PH-domain of AKT (Homo sapiens, UniProt P31749); assay: SPR binding to expressed PH-domain of AKT
T2 construct: made in house
T2 sequence (P31749 5-108 limits assumed): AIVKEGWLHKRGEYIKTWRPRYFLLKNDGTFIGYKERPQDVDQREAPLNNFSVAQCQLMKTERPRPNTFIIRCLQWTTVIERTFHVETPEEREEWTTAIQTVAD
Method: as §1, §2

[1] = test system: mut-KRAS NSCLC cell lines; assay: Screening against NSCLC cell line panel, mut-KRAS lines; type: cell-based; settings: for inhibition of mut-KRAS cell growth (in words): FIG. 3 and FIG. 5
Method: (§3) The isogenic KRAS lines harboring G12D, G12C, and G12V were obtained from Horizon Discovery labs on a one year lease. These cells were cultured in McCoys media with 10% FBS to 80% confluency. Cells were then released from flasks via trypsinization and plated into 96-well plates at an initial density range of 2000 cells per well. Cells were allowed 24 hours to attach, and then the agents were added to the culture media at a range of concentrations from 0-100 μM. Cells were incubated for 72 hours with the drugs, and then viability was assessed using an MTS viability assay. Cells were exposed to MTS reagent (Promega) dissolved in PBS (Hyclone) at a concentration of 200 μL reagent/mL media for 2 hours. Absorbance was then read at 490 nm, and viability was expressed as a percentage normalized between the negative control (no cells plated) and the condition of cells with no drug added (100% viability) normalized as the upper limit of viability.
(§4) Our panel of 30 cell lines and an extensive characterization were obtained from Dr. John Minna (UTSW). All cell lines were cultured in RPMI 1640 with 10% FBS. Cells were treated with concentrations of agents at concentrations 0.01 to 50 μM and evaluated as described above. IC50's were determined using Excelfit.

wt-KRAS NSCLC cell lines = assay: Screening against NSCLC cell line panel, wt-KRAS lines; type: cell-based; settings: for inhibition of wt-KRAS cell growth (in words): FIG. 5
Method: as §3, §4

CNK1 PH-domain (CNKSR1) = molecular target: T3, CNK1 PH-domain (CNKSR1) (Homo sapiens, UniProt Q969H4); assay: SPR binding assay (Biacore T100), CNK1 PH-domain; settings: for Surface Plasmon Resonance CNKSR1 binding (RU max) / Surface Plasmon Resonance CNKSR1 stability (RU max post-injection): date 12 09 13
T3 construct: The PH-domain His-fusion proteins (CNK1 and AKT1) were expressed and immobilized on a NTA chip; made in house
T3 sequence (Q969H4 403-502 limits assumed): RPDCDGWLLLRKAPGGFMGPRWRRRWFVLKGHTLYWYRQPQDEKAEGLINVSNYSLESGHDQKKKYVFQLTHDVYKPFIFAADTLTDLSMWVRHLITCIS
Method: (§5) All interaction analyses were done with a Biacore T100 Control Software v3.2, and BIAevaluation v4.1 analysis software (Biacore). The PH-domain His-fusion proteins (CNK1 and AKT1) were expressed and immobilized on a NTA chip to a level of 10,000 response units or less. Small molecule analytes at concentrations ranging from 50 μM to 0.010 μM were injected at a high flow rate (30 μL/min) DMSO concentrations in all samples and running buffer were 1-5% (v/v).
(§6) Other docking was performed using modeling algorithms with state-of-the-art commercial drug discovery software (Schrodinger suite). […] Additionally, ligand-based approaches provided an alternative to structure based drug discovery. Ligand-based virtual screening methodologies can take into account shape and electrostatics (like ROCS) and the pharmacophoric features (acceptor, donor, hydrophobic, aromatic, etc.) of its functional groups. […] SPR interaction analyses of all other compounds was undertaken using a Biacore T100 with Control and Evaluation software kit.

[2] = Mouse pharmacokinetics (iv); type: in vivo; settings: for clearance: in vivo
AKT1 PH-domain = molecular target: T4, AKT1 PH-domain (Homo sapiens, UniProt P31749); assay: SPR binding assay (Biacore T100), AKT1 PH-domain; settings: for Kd: read-out: AKT KD; for AKT KD: Table 7, curated diversity set
T4 construct: The PH-domain His-fusion proteins (CNK1 and AKT1) were expressed and immobilized on a NTA chip; made in house
T4 sequence (P31749 5-108 limits assumed): as the sequence (P31749 5-108 limits assumed) above
Method: as §5
(§7) A commercially available docking package, GOLD (GOLD [3.2], CCDC: Cambridge, UK, 2007) was used to evaluate the docking of compounds 1-7 into the binding pocket, see e.g. Table 5. Other docking was performed using modeling algorithms with state-of-the-art commercial drug discovery software (Schrodinger suite). GLIDE was chosen as the docking algorithm used to select and optimize compounds, providing a GlideScore as a rough estimate of binding affinity that was used to rank and select the best compounds. Additionally, ligand-based approaches provided an alternative to structure based drug discovery. Ligand-based virtual screening methodologies can take into account shape and electrostatics (like ROCS) and the pharmacophoric features (acceptor, donor, hydrophobic, aromatic, etc.) of its functional groups. Inositol tetraphosphate (IP4) binding to the PH-domain of CNKSR1 provided a good starting point for shape screening. Both structure-based and ligand-based approaches were used to find novel compounds (Table 7) and to refine and improve lead compounds (Tables 8, and 9). SPR interaction analyses for Compounds 1 through 7 were performed with a Biacore 2000, using Biacore2000 Control Software v3.2 and BIAevaluation v4.1 analysis software (Biacore) as described in Mol Cancer Ther 7:2621 (2008). SPR interaction analyses of all other compounds was undertaken using a Biacore T100 with Control and Evaluation software kit.

[3] = Pharmacokinetics after oral administration; type: in vivo, mice; settings: compound 8 administered orally to mice at the same dose (200 mg/kg); 200 mg/kg
Method: In order to understand better the reasons for the antitumor activity of compound #7 pharmacokinetic studies were conducted. […] Following oral administration in vivo plasma concentrations of the parent compound were low, about 3 μg/ml (7 μM) whereas the de-esterified acid form (compound 8) was present at high peak concentrations of around 50 μg/ml (128 μM). When compound 8 was administered orally to mice at the same dose even higher peak concentrations of 90 μg/ml (230 μM) were achieved.

[4] = test system: H1373 (KRAS mutant cell line); assay: Proliferation Assay H1373; type: cell-based; settings: Homo sapiens, NCI-H1373, N = 2 experiments
Method: as §3, §4

[5] = test system: H226 (KRAS wildtype cell line); assay: Proliferation Assay H226; type: cell-based; settings: Homo sapiens, NCI-H226, n = 1
Method: as §3, §4

[6] = test system: A549 (KRAS mutant cell line); assay: Proliferation Assay A549; type: cell-based; settings: Homo sapiens, N = 2 experiments
Method: as §3, §4

[7] = test system: H1975 (KRAS wildtype cell line); assay: Proliferation Assay H1975; type: cell-based; settings: Homo sapiens, NCI-H1975, n = 1
Method: as §3, §4

PLE = assay: SPR binding, PLE; settings: Table 8
Method: as §7, with “SPR interaction analyses of all other compounds was undertaken using a Biacore T100 with Control and Evaluation software kit.” left out

PH-domain of CNKSR1 = molecular target: T5, PH-domain of CNKSR1 (Homo sapiens, UniProt Q969H4); assay: SPR binding (Biacore 2000) to CNKSR1 PH-domain, initial hits; settings: Table 5
T5 sequence (Q969H4 403-502 limits assumed): T3 sequence (Q969H4 403-502 limits assumed)
Method: In embodiments, a homology model for the PH-domain of CNSKR1 based on known PH-domain crystal structures can be developed. The docking program PHuDock® can be used to identify potential inhibitors of CNKSR1. […] The binding of the compounds to the expressed PH-domain of CNKSR1 (KDobs) can be measured by surface plasmon resonance (SPR) spectroscopy.
as §6

[8] = Table 6, mean of 3 wt-KRAS lines, read-out: NSCL cell line cytotoxicity IC50 wt-KRAS
[9] = Table 6, mean of 3 mut-KRAS lines, read-out: NSCL cell line cytotoxicity IC50 mut-KRAS
[10] = Table 7, read-out: IC50 WT-KRAS
[11] = Table 7, read-out: IC50 mut-KRAS

| SMILES | inhibition of mut-KRAS cell growth (in words) [1] | IC50 (wt-KRAS NSCLC cell lines; [8]) [µM] | Kd (CNK1 PH-domain (CNKSR1); Table 6, read-out: CNKS KD) [µM] | t1/2β [2] [h] | clearance [2] [mL/min/kg] | IC50 [1, 9] [µM] | Kd (AKT1 PH-domain; Table 6) [µM] | IC50 (wt-KRAS NSCLC cell lines; [10]) [µM] | IC50 [1, 11] [µM] | also measured |
| --- | --- | --- | --- | --- | --- | --- | --- | --- | --- | --- |
| CCOC(=O)Cc1nn(SCC(=O)O)c(=O)c2ccccc12 [#4] | low micromolar inhibition |  |  |  |  |  |  |  |  | SPR binding to PH-domain of PDPK1 (PH-domain of PDPK1): No measurable binding; SPR binding to PH-domain of Tiam1 (PH-domain of Tiam1): No measurable binding; SPR binding to PH-domain of AKT (PH-domain of AKT): No measurable binding |
| Cc1ccc(-c2csc(Cn3nc(CC(=O)O)c4ccccc4c3=O)n2)cc1 [Compound 8] |  | > 100 | > 100 | 1.2 | 4740 | > 100 | 51.6 |  |  | activity in cells in culture ([1]; FIG. 5): inactive; peak plasma concentration [3]: 90 μg/ml and 230 μM |
| Cc1ccc(-c2csc(Cn3nc(CC4OCCCO4)c4ccccc4c3=O)n2)cc1 [Compound 9] |  | 55 | 0.026 | 4.33 | 133 | 25 | 66.3 |  |  | IC50 [4]: > 100 µM; IC50 [5]: > 100 µM; IC50 [6]: 42 µM; IC50 [7]: 100 µM |
| Cc1ccc(-c2csc(Cn3nc(Cc4nccs4)c4ccccc4c3=O)n2)cc1 [Compound 10] | inhibited the growth | 46 | 4.12 | 4.08 | 119 | 34 |  |  |  | inhibition of wt-KRAS cell growth (in words) (wt-KRAS NSCLC cell lines): also inhibited; selectivity for mut-KRAS cells compared to wt-KRAS cells ([1]; NSCLC cell lines): approximately two fold |
| Cc1ccc(-c2csc(Cn3nc(CC4OCC(=O)O4)c4ccccc4c3=O)n2)cc1 (stereo not drawn) [Compound 11] | inhibited the growth | 56 | 0.27 |  |  | 45 | 2.53 |  |  | inhibition of wt-KRAS cell growth (in words) (wt-KRAS NSCLC cell lines): also inhibited |
| O=C(O)CSc1cc(NS(=O)(=O)c2cccs2)c2ccccc2c1O [Compound 12] | more potently than compound 7 or its analogs |  |  |  |  |  |  | 12 | 17 | inhibition of wt-KRAS cell growth (in words) (wt-KRAS NSCLC cell lines): more potently than compound 7 or its analogs; AKT KD (AKT1 PH-domain): Bound |
| O=C(O)c1ccc2c(c1)C1C=CCC1C(C(=O)O)N2 (stereo not drawn) [Compound 56] |  |  |  |  |  |  |  | > 100 | > 100 |  |
| Cc1ccc(-c2nc(SCC(=O)O)c3c(=O)n(C)c(=O)n(C)c3n2)cc1 [Compound 61] |  |  |  |  |  |  |  | > 100 | > 100 |  |
| O=C(O)COc1cc(OCC(=O)O)c2c3c(c(=O)oc2c1)CCCC3 [Compound 76] |  |  |  |  |  |  |  | > 100 | > 100 | AKT KD (AKT1 PH-domain): Bound |
| CCNC(=O)Cc1nn(Cc2nc(-c3ccc(C)cc3)cs2)c(=O)c2ccccc12 [Compound 78] |  |  | 0.65 | 0.467 | 34 |  | 2.53 |  |  | Surface Plasmon Resonance CNKSR1 binding (RU max) (CNK1 PH-domain (CNKSR1)): 0.224 RU * 100/Da; Surface Plasmon Resonance CNKSR1 stability (RU max post-injection) (CNK1 PH-domain (CNKSR1)): −0.065 RU * 100/Da; IC50 [4]: 45 µM; IC50 [5]: 60 µM; IC50 [6]: 25 µM; IC50 [7]: 60 µM |
| CCOC(=O)/C=C/c1cc(NS(=O)(=O)c2cccs2)c2c(c1O)OCO2 [Compound 88, (E)-ethyl 3-(4-hydroxy-7-(thiophene-2-sulfonamido)benzo[d][1,3]dioxol-5-yl)acrylate] |  |  |  |  |  |  |  |  |  | Kd (CNK1 PH-domain (CNKSR1); Table 8, read-out: CNK KD): 0.186 µM; Surface Plasmon Resonance CNKSR1 binding (RU max) (CNK1 PH-domain (CNKSR1)): 0.817 RU * 100/Da; Surface Plasmon Resonance CNKSR1 stability (RU max post-injection) (CNK1 PH-domain (CNKSR1)): 1.138 RU * 100/Da; IC50 [4]: > 100 µM; IC50 [5]: > 100 µM; Kd (AKT1 PH-domain; Table 8): 75.2 µM; IC50 [6]: > 100 µM; Kd (PLE): 261 µM; IC50 [7]: > 100 µM |
| CC(=O)Nc1cccc(-n2nnc(SCC(=O)c3cc(-c4ccccc4)no3)n2)c1 [Compound 120] |  |  |  |  |  |  |  |  |  | IC50 ([1]; Table 5, read-out: Mean IC50 mut-KRAS): 47 ± 5.2 µM; Kd (PH-domain of CNKSR1): 3.3 ± 1.2 µM |
